# Structures can show the parent of a compound that is named as a salt.
# How the values were obtained:
# [1] = target: T1, noradrenaline reuptake site (Rattus norvegicus, UniProt Q63380); experiment: Noradrenaline reuptake site binding assay in rat brain ([3H]nisoxetine); conditions: for Hill slope, NA reuptake site: rat frontal cortex, [3H]nisoxetine, mean ± SEM
# T1 construct: Adult male CD rats were killed by cervical dislocation, brains removed and frontal cortices (120-150 mg) immediately dissected; from tissue; host or cells: rat frontal cortex membranes (Sprague-Dawley derived CD rats)
# Procedure: (§1) The IC50 was calculated using the following formula: [formula]
# The supernatant was discarded and the pellet rehomogenised in Tris buffer, 1:60 w/v, and centrifuged at 40,000 g for 10 minutes. This step was repeated a further twice so that, in total, the brain tissue was homogenised and centrifuged four times. […] All centrifugations were carried out at 4° C.
# [2] = target: T2, dopamine reuptake site (Rattus norvegicus, UniProt P23977); experiment: Dopamine reuptake site binding assay in rat brain ([3H]GBR 12935); conditions: for Hill slope, DA reuptake site: rat striatum, [3H]GBR 12935, mean ± SEM
# T2 construct: from tissue; host or cells: rat striatal membranes (Sprague-Dawley derived CD rats)
# Procedure: as §1
# Tissue was homogenised in ice-cold 0.32 M sucrose (1:80 w/v) using a motor driven teflon pestle (12 strokes, 800 rpm) and centrifuged at 1000 g for 12 minutes. […] All centrifugations were carried out at 4° C.
# [3] = target: T3, noradrenaline reuptake site (Homo sapiens, UniProt P23975); experiment: Noradrenaline reuptake site binding assay in human brain ([3H]nisoxetine); conditions: human thalamus, mean ± SEM
# T3 construct: Frozen thalamus was homogenised in ice-cold 0.25 M sucrose (1:40 w/v); from tissue; host or cells: human post-mortem thalamus membranes
# Procedure: as §1
# The pellet was resuspended in Tris buffer (1:40 w/v) and incubated at 37° C. for 10 min (to remove endogenous neurotransmitters) and recentrifuged at 35,000 g for 10 minutes. […] All centrifugations were carried out at 4° C.
# [4] = target: T4, dopamine reuptake site (Homo sapiens, UniProt Q01959); experiment: Dopamine reuptake site binding assay in human brain ([3H]GBR 12935); conditions: for Hill slope, DA reuptake site: human putamen, [3H]GBR 12935, mean ± SEM
# T4 construct: Frozen putamen was homogenised in ice-cold 0.25 M sucrose (1:40 w/v); from tissue; host or cells: human post-mortem putamen membranes
# Procedure: as §1
# The membrane pellet was resuspended in Tris buffer (1:40 w/v) and incubated at 37° C. for 10 min (to remove endogenous neurotransmitters) and recentrifuged at 35,000 g for 10 minutes. […] All centrifugations were carried out at 4° C.
# [5] = test system: mice; experiment: Porsolt test in mice; assay type: in vivo; conditions: Mus musculus, dose required to increase mobility by 50%
# Procedure: This test was carried out according to the procedure described in Porsolt, R. D. (1981). Behavioural despair. In: Antidepressants: Neurochemical, Behavioural and Clinical Perspectives, ed. […] New York: Raven Press.
# (§2) The test compounds were dissolved in deionised water. Control groups of mice were treated with either deionised water or the standard antidepressant, amitriptyline (30 mg/kg p.o.).
# Data from the Porsolt test were analysed in two ways.
# [6] = test system: mice; experiment: Reserpine reversal screen in mice; assay type: in vivo; conditions: Mus musculus, ip, reversal of reserpine-induced effects, reserpine 10 mg/kg i.p., read-out: ED50, Reserpine test in mice
# Procedure: This was carried as described in U.S. Pat. No. 4,746,680 except that the dose of reserpine was 10 mg/kg (i.p.).
# as §2
# (§3) Data from the reserpine reversal screen in mice and the reserpine prevention test in rats were used to calculate ED50 values for the reversal and prevention of reserpine-induced effects respectively.
# [7] = test system: rats; experiment: Prevention of reserpine-induced ptosis in rats; assay type: in vivo; conditions: Rattus norvegicus, read-out: ED50, Reserpine test in rats
# Procedure: A further standard test for antidepressants but relying on the ability of compounds to prevent rather than reverse reserpine-induced effects in rodents.
# The compounds were tested as described in Prog. Neuro-Psychopharmacol. & Biol. Psychiat., 12, 575-584, Buckett et al. Rats were housed five per cage rather than six per cage and ptosis was assessed twice during 60 sec rather than during 30 sec.
# as §3
# T1 sequence (Q63380 1-617): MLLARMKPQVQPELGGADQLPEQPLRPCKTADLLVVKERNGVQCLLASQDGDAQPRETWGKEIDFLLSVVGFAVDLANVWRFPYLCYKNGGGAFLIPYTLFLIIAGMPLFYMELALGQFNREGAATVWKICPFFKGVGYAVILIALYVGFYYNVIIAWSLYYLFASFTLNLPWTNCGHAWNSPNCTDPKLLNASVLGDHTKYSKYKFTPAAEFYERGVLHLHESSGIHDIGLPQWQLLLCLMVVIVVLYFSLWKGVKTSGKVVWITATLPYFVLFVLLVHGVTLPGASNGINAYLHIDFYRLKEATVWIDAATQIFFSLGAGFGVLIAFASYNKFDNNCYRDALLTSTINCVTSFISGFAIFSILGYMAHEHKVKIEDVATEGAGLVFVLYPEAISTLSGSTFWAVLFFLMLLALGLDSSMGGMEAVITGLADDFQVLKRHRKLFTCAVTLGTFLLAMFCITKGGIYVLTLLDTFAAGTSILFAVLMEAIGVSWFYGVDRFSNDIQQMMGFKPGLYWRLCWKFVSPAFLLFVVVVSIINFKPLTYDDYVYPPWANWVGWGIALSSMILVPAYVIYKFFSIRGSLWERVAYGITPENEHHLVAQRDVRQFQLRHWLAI
# T2 sequence (P23977 whole entry): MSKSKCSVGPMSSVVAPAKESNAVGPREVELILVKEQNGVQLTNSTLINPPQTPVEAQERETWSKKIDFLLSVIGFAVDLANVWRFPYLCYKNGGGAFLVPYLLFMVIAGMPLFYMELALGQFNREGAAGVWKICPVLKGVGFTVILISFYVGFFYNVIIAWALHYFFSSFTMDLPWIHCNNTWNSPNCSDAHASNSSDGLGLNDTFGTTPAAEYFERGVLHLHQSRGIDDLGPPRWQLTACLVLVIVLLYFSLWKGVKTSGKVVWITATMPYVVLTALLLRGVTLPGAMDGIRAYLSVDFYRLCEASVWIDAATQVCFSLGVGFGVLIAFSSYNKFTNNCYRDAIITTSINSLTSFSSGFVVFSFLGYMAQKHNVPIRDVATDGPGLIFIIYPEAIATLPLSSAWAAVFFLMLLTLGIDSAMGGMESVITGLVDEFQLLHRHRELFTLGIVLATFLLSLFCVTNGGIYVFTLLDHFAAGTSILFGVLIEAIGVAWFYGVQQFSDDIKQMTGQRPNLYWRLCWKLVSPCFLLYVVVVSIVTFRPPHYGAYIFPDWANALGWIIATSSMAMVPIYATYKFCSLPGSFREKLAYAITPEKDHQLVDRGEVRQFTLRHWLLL
# T4 sequence (Q01959 whole entry): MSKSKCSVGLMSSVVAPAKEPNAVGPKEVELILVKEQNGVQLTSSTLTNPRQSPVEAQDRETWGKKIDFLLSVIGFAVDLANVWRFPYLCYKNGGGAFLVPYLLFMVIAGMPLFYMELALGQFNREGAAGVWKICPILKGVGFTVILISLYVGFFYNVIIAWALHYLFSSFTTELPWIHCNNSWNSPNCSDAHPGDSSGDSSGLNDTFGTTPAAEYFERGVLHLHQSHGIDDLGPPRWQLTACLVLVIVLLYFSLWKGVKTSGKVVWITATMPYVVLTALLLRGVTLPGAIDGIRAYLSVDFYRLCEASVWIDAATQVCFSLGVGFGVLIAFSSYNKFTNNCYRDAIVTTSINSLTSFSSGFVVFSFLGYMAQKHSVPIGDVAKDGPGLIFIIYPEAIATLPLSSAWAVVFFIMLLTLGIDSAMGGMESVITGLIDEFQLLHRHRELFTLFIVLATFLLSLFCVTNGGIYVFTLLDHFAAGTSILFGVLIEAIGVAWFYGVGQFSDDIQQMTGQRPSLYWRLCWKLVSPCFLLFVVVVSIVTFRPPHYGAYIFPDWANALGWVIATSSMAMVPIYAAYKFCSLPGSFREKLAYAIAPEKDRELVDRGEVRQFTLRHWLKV
# T3 sequence (P23975 whole entry): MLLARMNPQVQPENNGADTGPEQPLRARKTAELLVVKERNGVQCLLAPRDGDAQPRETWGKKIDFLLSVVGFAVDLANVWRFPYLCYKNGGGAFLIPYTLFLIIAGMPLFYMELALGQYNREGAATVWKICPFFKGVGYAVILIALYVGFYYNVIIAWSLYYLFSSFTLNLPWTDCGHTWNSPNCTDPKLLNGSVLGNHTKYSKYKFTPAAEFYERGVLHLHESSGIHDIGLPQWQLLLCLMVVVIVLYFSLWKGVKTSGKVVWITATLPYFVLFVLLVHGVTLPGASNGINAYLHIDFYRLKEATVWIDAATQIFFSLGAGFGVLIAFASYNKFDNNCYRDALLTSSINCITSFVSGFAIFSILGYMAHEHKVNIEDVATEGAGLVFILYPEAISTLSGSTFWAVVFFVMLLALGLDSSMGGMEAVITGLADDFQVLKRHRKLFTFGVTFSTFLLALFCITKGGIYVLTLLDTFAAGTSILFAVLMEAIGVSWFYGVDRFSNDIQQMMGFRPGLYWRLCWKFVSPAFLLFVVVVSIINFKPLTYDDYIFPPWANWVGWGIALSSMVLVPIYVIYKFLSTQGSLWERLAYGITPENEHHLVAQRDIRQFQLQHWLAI
Compound,Ki [1] [nM],"Hill slope, NA reuptake site [1]",Ki [2] [nM],"Hill slope, DA reuptake site [2]","Hill slope, NA reuptake site [3]",Ki [4] [nM],"Hill slope, DA reuptake site [4]",ED50 [5] [mg/kg],ED50 [6] [mg/kg],ED50 [7] [mg/kg]
"CC(C)CC(N(C)C)C1(c2ccc(Cl)cc2)CCC1 (racemic) [Sibutramine, N,N-dimethyl-1-[1-(4-chlorophenyl)cyclobutyl]-3-methylbutylamine]",86 ± 10,[1.02 ± 0.02],3070 ± 50,[1.14 ± 0.04],[1.34 ± 0.01],943 ± 64,[1.15 ± 0.04],1.8,1.8,~1.5
"CC(C)C[C@@H](N(C)C)C1(c2ccc(Cl)cc2)CCC1 [(+)-Sibutramine, hydrochloride]",3040 ± 233,[1.02 ± 0.06],1650 ± 175,[1.74 ± 0.20],[0.97 ± 0.13],897 ± 125,[1.29 ± 0.04],2.4,~1,0.7
"CC(C)C[C@H](N(C)C)C1(c2ccc(Cl)cc2)CCC1.Cl [(−)-Sibutramine, (−)-N-{1-[1-(4-chlorophenyl)cyclobutyl]-3-methylbutyl}-N,N-dimethylamine hydrochloride]",23800 ± 615,[1.02 ± 0.08],4480 ± 65,[2.07 ± 0.16],[1.30 ± 0.04],2890 ± 363,[1.25 ± 0.05],9.8,~30,59

# Reference: patent US6552087B1 (Abbott GmbH & Co. KG, priority 1999, dated 2003)
